ChEMBL document CHEMBL4699612, “Discovery of thiosemicarbazone-containing compounds with potent anti-proliferation activity against drug-resistant K562/A02 cells” (Bioorg Med Chem Lett, 2020)
The source made the active and inactive calls. The calls are words filed in the database; no cut-off is given here.

How the values were obtained:
K562 [1] = assay: Antiproliferative activity against human K562 cells by MTT assay; assay type: functional, cell-based
K562/A02 [2] = assay: Antiproliferative activity against human K562/A02 cells overexpressing P-gp by MTT assay; assay type: functional, cell-based
[3] = Resistance index, ratio of IC50 for human K562/A02 cells to IC50 for human K562 cells; assay type: functional; set-up: reference not given here
Histone deacetylase 1 = Histone deacetylase 1 (Homo sapiens, UniProt Q13547); assay: Inhibition of recombinant human HDAC1 using Boc-Lys(Ac)-AMC as substrate incubated for 60 mins by fluorimetric assay
[4] = target: T1, Protein deacetylase HDAC6 (Homo sapiens, UniProt Q9UBN7); assay: Inhibition of recombinant human HDAC6 using Boc-Lys(Ac)-AMC as substrate incubated for 60 mins by fluorimetric assay
T1 sequence (Q9UBN7 whole entry): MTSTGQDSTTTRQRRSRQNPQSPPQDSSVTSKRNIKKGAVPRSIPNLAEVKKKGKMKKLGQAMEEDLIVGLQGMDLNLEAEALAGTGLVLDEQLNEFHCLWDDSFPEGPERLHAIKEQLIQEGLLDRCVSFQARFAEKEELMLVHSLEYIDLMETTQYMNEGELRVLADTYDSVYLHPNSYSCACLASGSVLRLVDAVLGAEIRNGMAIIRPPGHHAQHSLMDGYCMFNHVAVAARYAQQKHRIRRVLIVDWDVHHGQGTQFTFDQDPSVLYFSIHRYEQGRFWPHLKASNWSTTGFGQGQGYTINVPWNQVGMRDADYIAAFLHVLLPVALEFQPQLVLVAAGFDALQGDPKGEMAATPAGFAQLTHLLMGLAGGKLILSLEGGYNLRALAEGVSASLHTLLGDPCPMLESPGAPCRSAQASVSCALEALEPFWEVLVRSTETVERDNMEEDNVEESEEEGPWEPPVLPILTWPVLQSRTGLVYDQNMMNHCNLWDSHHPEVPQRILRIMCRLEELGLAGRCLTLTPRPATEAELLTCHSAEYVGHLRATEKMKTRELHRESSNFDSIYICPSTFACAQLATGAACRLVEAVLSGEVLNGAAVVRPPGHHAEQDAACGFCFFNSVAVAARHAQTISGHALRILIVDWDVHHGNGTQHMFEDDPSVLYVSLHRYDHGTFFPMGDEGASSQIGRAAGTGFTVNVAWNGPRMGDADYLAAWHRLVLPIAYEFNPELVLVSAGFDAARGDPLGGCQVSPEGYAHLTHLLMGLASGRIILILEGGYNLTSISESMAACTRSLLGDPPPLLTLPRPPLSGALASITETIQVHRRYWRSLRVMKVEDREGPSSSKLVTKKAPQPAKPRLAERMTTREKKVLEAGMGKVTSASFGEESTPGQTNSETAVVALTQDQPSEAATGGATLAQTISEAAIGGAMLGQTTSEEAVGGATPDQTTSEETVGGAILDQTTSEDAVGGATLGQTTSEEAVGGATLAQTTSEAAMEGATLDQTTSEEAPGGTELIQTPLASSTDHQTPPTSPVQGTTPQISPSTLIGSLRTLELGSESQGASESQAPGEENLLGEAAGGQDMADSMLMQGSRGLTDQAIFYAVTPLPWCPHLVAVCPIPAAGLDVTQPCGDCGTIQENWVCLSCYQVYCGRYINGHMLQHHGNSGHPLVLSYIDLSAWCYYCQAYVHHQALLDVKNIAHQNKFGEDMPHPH

Histone deacetylase 8 = target: T2, Histone deacetylase 8 (Homo sapiens, UniProt Q9BY41); assay: Inhibition of recombinant human HDAC8 using Boc-Lys(Ac)-AMC as substrate incubated for 60 mins by fluorimetric assay
T2 sequence (Q9BY41 whole entry): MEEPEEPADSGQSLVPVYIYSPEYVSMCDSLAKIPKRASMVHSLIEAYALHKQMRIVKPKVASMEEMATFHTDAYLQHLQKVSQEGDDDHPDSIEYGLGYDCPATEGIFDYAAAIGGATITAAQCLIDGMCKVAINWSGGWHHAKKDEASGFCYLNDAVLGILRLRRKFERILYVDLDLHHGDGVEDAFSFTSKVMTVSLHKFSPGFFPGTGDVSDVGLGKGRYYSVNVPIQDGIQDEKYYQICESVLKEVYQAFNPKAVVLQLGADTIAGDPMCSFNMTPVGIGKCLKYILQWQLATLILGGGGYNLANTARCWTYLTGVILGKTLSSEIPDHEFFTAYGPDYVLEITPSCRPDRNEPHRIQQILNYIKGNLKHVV

K562 [5] = assay: Induction of ROS generation in human K562 cells at 1 to 3 uM by DCFHA-DA based assay; assay type: functional, cell-based; conditions: dose microM 1-3
K562/A02 [6] = assay: Induction of ROS generation in human K562/A02 cells by DCFHA-DA based assay; assay type: functional, cell-based; conditions: dose microM 1-3
K562/A02 [7] = assay: Induction of ROS generation in human K562/A02 cells at 3 uM in presence of ROS scavenger, NAC by DCFHA-DA based assay; assay type: functional, cell-based
K562/A02 [8] = assay: Cytotoxicity against human K562/A02 cells at 3 uM incubated for 24 hrs in presence of ROS scavenger, NAC by MTT assay; assay type: functional, cell-based
K562/A02 [9] = assay: Effect on P-gp expression in human K562/A02 cells overexpressing P-gp; assay type: functional, cell-based
K562/A02 [10] = assay: Induction of apoptosis in human K562/A02 cells assessed as viable cells at 1 uM incubated for 48 hrs by annexin V and propidium iodide staining based flow cytometry (reference value: 92.94 %); assay type: functional; conditions: read-out: Activity
K562/A02 [11] = assay: Induction of apoptosis in human K562/A02 cells assessed as early apoptotic cells at 1 uM incubated for 48 hrs by annexin V and propidium iodide staining based flow cytometry (reference value: 1.42 %); assay type: functional
K562/A02 [12] = assay: Induction of apoptosis in human K562/A02 cells assessed as late apoptotic cells at 1 uM incubated for 48 hrs by annexin V and propidium iodide staining based flow cytometry (reference value: 0.83 %); assay type: functional
K562/A02 [13] = assay: Induction of apoptosis in human K562/A02 cells assessed as necrotic cells at 1 uM incubated for 48 hrs by annexin V and propidium iodide staining based flow cytometry (reference value: 4.81 %); assay type: functional
K562/A02 [14] = assay: Induction of apoptosis in human K562/A02 cells assessed as viable cells at 3 uM incubated for 48 hrs by annexin V and propidium iodide staining based flow cytometry (reference value: 92.94 %); assay type: functional; conditions: read-out: Activity
K562/A02 [15] = assay: Induction of apoptosis in human K562/A02 cells assessed as early apoptotic cells at 3 uM incubated for 48 hrs by annexin V and propidium iodide staining based flow cytometry (reference value: 1.42 %); assay type: functional
K562/A02 [16] = assay: Induction of apoptosis in human K562/A02 cells assessed as late apoptotic cells at 3 uM incubated for 48 hrs by annexin V and propidium iodide staining based flow cytometry (reference value: 0.83 %); assay type: functional
K562/A02 [17] = assay: Induction of apoptosis in human K562/A02 cells assessed as necrotic cells at 3 uM incubated for 48 hrs by annexin V and propidium iodide staining based flow cytometry (reference value: 4.81 %); assay type: functional
K562/A02 [18] = assay: Up regulation of acetylated histone H3 expression level in human K562/A02 cells at 1 to 3 uM measured after 48 hrs by Western blot analysis; assay type: functional, cell-based; conditions: dose microM 1-3, time 48.0 hrs
K562/A02 [19] = assay: Up regulation of acetylated histone H4 expression level in human K562/A02 cells at 1 to 3 uM measured after 48 hrs by Western blot analysis; assay type: functional, cell-based; conditions: dose microM 1-3, time 48.0 hrs
K562/A02 [20] = assay: Induction of apoptosis in human K562/A02 cells assessed as increase in Bax expression incubated for 48 hrs by Western blot analysis; assay type: functional, cell-based; conditions: dose microM 1-3, time 48.0 hrs
K562/A02 [21] = assay: Induction of apoptosis in human K562/A02 cells assessed as decrease in Bcl2 expression incubated for 48 hrs by Western blot analysis; assay type: functional, cell-based; conditions: dose microM 1-3, time 48.0 hrs
K562/A02 [22] = assay: Induction of apoptosis in human K562/A02 cells assessed as increase in cleaved caspase 3 expression incubated for 48 hrs by Western blot analysis; assay type: functional, cell-based; conditions: dose microM 1-3, time 48.0 hrs
K562/A02 [23] = assay: Induction of apoptosis in human K562/A02 cells assessed as increase in cleaved PARP expression incubated for 48 hrs by Western blot analysis; assay type: functional, cell-based; conditions: dose microM 1-3, time 48.0 hrs
K562/A02 [24] = assay: Effect on P-gp activity in human K562/A02 cells; assay type: cell-based; conditions: filed as modulator

Histone deacetylase 1, sequence (Q13547 whole entry): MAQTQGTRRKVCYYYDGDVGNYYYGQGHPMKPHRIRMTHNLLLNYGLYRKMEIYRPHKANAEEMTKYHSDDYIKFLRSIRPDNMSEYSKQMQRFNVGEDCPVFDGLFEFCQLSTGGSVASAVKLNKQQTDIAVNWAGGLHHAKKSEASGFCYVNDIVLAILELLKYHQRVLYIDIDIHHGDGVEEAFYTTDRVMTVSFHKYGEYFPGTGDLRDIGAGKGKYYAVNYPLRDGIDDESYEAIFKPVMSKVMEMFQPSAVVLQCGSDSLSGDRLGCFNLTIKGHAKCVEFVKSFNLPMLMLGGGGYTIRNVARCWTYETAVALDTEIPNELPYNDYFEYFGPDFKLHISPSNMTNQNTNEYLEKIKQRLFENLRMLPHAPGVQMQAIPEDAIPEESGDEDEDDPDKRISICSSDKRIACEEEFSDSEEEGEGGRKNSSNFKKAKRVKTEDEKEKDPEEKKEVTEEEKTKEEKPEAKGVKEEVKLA

With `C/C(=N\NC(=S)NCCCCCC(=O)NO)c1cccc(C)c1` the IC50 (K562 [1]) was 3.84 µM, the IC50 (K562/A02 [2]) was 3.57 µM and the “Ratio IC50” value [3] was 0.93.

For `O=C(CCCCCNC(=S)N/N=C(\c1ccccc1)c1ccccc1F)NO`, the IC50 (K562 [1]) was 4.63 µM, the IC50 (K562/A02 [2]) was 6.01 µM and the “Ratio IC50” value [3] was 1.3.

In the case of `COc1cccc2c1C(=O)c1c(O)c3c(c(O)c1C2=O)C[C@@](O)(C(=O)CO)C[C@@H]3O[C@H]1C[C@H](N)[C@H](O)[C@H](C)O1.Cl` [DOXORUBICIN HYDROCHLORIDE], the IC50 (K562 [1]) is reported as 0.83 µM, the IC50 (K562/A02 [2]) is reported as 23.4 µM and the “Ratio IC50” value [3] is reported as 28.21.

Compound `O=C(CCCCCCC(=O)Nc1ccccc1)NO` [VORINOSTAT] has an IC50 (K562/A02 [2]) of 3.13 µM.

With `Cc1ccc(NC(=O)c2ccc(CN3CCN(C)CC3)cc2)cc1Nc1nccc(-c2cccnc2)n1` [IMATINIB] the IC50 (K562 [1]) was 0.61 µM, the IC50 (K562/A02 [2]) was 0.98 µM and the “Ratio IC50” value [3] was 1.61.

With `COc1ccccc1/C(=N/NC(=S)NCCCCCC(=O)NO)c1ccccc1` the IC50 (K562 [1]) was 3.56 µM, the IC50 (K562/A02 [2]) was 2.91 µM and the “Ratio IC50” value [3] was 0.82.

With `O=C(CCCCCNC(=S)N/N=C(\c1ccccc1)c1ccccn1)NO` the IC50 (K562 [1]) was 2.14 µM, the IC50 (K562/A02 [2]) was 2.03 µM and the “Ratio IC50” value [3] was 0.95.

For `O=C(CCCCCNC(=S)NN=C(c1ccccc1)c1ccccc1)NO`, the IC50 (K562 [1]) was 3.81 µM, the IC50 (K562/A02 [2]) was 3.64 µM and the “Ratio IC50” value [3] was 0.96.

For `C/C(=N\NC(=S)NCCCCCC(=O)NO)c1ccc(Br)cc1`, the IC50 (K562 [1]) was 0.96 µM, the IC50 (K562/A02 [2]) was 0.44 µM and the “Ratio IC50” value [3] was 0.46. For the same compound, the IC50 (Histone deacetylase 1) was 0.0386 µM, the IC50 [4] was 0.0346 µM and the IC50 (Histone deacetylase 8) was > 5 µM. For the same compound, the Activity (K562 [5]) was “inactive”, the Activity (K562/A02 [6]) was “Dose-dependent effect” and the Activity (K562/A02 [7]) was “inactive”. For the same compound, the Activity (K562/A02 [8]) was “inactive”, the Activity (K562/A02 [9]) was “Active” and the viability at 1 µM (K562/A02 [10]) was 27.2%. The Activity (K562/A02 [11]) was 16.35%, the Activity (K562/A02 [12]) was 52% and the Activity (K562/A02 [13]) was 4.4%. The viability at 3 µM (K562/A02 [14]) was 18.9%, the Activity (K562/A02 [15]) was 22.28% and the Activity (K562/A02 [16]) was 53.69%. The Activity (K562/A02 [17]) was 5.18%, the Activity (K562/A02 [18]) was “Active” and the Activity (K562/A02 [19]) was “Active”. For the same compound, the Activity (K562/A02 [20]) was “Dose-dependent effect”, the Activity (K562/A02 [21]) was “Dose-dependent effect” and the Activity (K562/A02 [22]) was “Dose-dependent effect”. For the same compound, the Activity (K562/A02 [23]) was “Dose-dependent effect” and the Activity (K562/A02 [24]) was “Active”.

For `Cc1ccc(/C(=N/NC(=S)NCCCCCC(=O)NO)c2ccccc2)cc1`, the IC50 (K562 [1]) was 4.34 µM, the IC50 (K562/A02 [2]) was 3.15 µM and the “Ratio IC50” value [3] was 0.73.

With `C/C(=N\NC(=S)NCCCCCC(=O)NO)c1ccc(F)cc1` the IC50 (K562 [1]) was 1.89 µM, the IC50 (K562/A02 [2]) was 1.02 µM and the “Ratio IC50” value [3] was 0.54. The IC50 (Histone deacetylase 1) was 0.0693 µM, the IC50 [4] was 0.0629 µM and the IC50 (Histone deacetylase 8) was > 5 µM.
